Laboratory results from patent publication US9084424B2, “N-benzyl heterocyclic carboxamides” (BAYER INTELLECTUAL PROPERTY GMBH, priority 2010, dated 2015).

How the values were obtained:
[1] = log P by HPLC on reversed-phase column (EEC Directive 79/831 Annex V.A8); assay type: physicochemical; conditions: 0.1% aqueous formic acid and acetonitrile, linear gradient 10% to 90% acetonitrile
Description: In table 1, the log P values were determined in accordance with EEC Directive 79/831 Annex V.A8 by HPLC (High Performance Liquid Chromatography) on a reversed-phase column (C 18), using the method described below: Temperature: 40° C.; Mobile phases: 0.1% aqueous formic acid and acetonitrile; linear gradient from 10% acetonitrile to 90% acetonitrile. Calibration was carried out using unbranched alkan-2-ones (comprising 3 to 16 carbon atoms) with known log P values (determination of the log P values by the retention times using linear interpolation between two successive alkanones). lambda-max-values were determined using UV-spectra from 200 nm to 400 nm and the peak values of the chromatographic signals.

Alternaria solani = test: In vivo preventive test on Alternaria solani (tomato); conditions: preventive spray, 500 ppm of active ingredient, evaluated 7 days after inoculation
Description: In Vivo Preventive Test on Alternaria Solani (Tomato)
(§1) Solvent: 49 parts by weight of N,N-dimethylformamide
(§2) Emulsifier: 1 part by weight of alkylarylpolyglycolether
(§3) To produce a suitable preparation of active compound, 1 part by weight of active compound is mixed with the stated amounts of solvent and emulsifier, and the concentrate is diluted with water to the desired concentration.
To test for preventive activity, young plants are sprayed with the preparation of active compound at the stated rate of application. One day after this treatment, the plants are inoculated with an aqueous spore suspension of Alternaria solani. The plants remain for one day in an incubation cabinet at approximately 22° C. and a relative atmospheric humidity of 100%. Then the plants are placed in an incubation cabinet at approximately 20° C. and a relative atmospheric humidity of 96%.
The test is evaluated 7 days after the inoculation. 0% means an efficacy which corresponds to that of the untreated control while an efficacy of 100% means that no disease is observed.

Pyrenophora teres = test: In vivo preventive test on Pyrenophora teres (barley); conditions: preventive spray, 500 ppm of active ingredient, evaluated 7-9 days after inoculation
Description: In Vivo Preventive Test on Pyrenophora teres (Barley)
Solvent: 49 parts by weight of N,N-dimethylacetamid
Emulsifier: 1 part by weight of alkylaryl polyglycol ether
as §3
To test for preventive activity, young plants are sprayed with the preparation of active compound at the stated rate of application. One day after this treatment, the plants are inoculated with an aqueous spore suspension of Pyrenophora teres. The plants remain for 48 hours in an incubation cabinet at 22° C. and a relative atmospheric humidity of 100%. Then the plants are placed in a greenhouse at a temperature of approximately 20° C. and a relative atmospheric humidity of approximately 80%.
The test is evaluated 7-9 days after the inoculation. 0% means an efficacy which corresponds to that of the untreated control while an efficacy of 100% means that no disease is observed.

Sphaerotheca fuliginea = test: In vivo preventive test on Sphaerotheca fuliginea (cucumber); conditions: preventive spray, 500 ppm of active ingredient, evaluated 7 days after inoculation
Description: In Vivo Preventive Test on Sphaerotheca fuliginea (Cucumber)
as §1, §2, §3
To test for preventive activity, young plants are sprayed with the preparation of active compound at the stated rate of application. After the spray coating has dried on, the plants are inoculated with an aqueous spore suspension of Sphaerotheca fuliginea. The plants are then placed in a greenhouse at approximately 23° C. and a relative atmospheric humidity of approximately 70%.
The test is evaluated 7 days after the inoculation. 0% means an efficacy which corresponds to that of the untreated control, while an efficacy of 100% means that no disease is observed.

[2] = HPLC, reversed-phase C 18, 40° C.
[3] = HPLC on reversed-phase column (C 18), 40° C.

Row | Compound | logP [1, 2] | Efficacy (Alternaria solani) | Efficacy (Pyrenophora teres) | logP [1, 3] | Efficacy (Sphaerotheca fuliginea)
1 | Cn1nc(C(F)F)c(C(=O)NCc2cc(Cl)ccc2Cl)c1F [Example 54] | 4.19 | 89% |  |  | 
2 | C=CCN(Cc1ccccc1CC)C(=O)c1c(C(F)F)nn(C)c1F [Example 16] | 3.36 | 80% | 100% |  | 
3 | Cn1nc(C(F)F)c(C(=O)NCc2ccc3c(c2)CCCC3)c1F [Example 110] |  | 94% | 80% | 3.25 | 
4 | CC(NC(=S)c1c(C(F)F)nn(C)c1Cl)c1ccccc1C(F)(F)F (stereo not drawn) [Example 85] | 3.55 | 95% | 100% |  | 
5 | Cn1nc(C(F)F)c(C(=O)NC(C)(C)c2cc(Cl)ccc2Cl)c1F [Example 52] | 3.89 |  |  |  | 80%
6 | Cn1nc(C(F)F)c(C(=O)N(Cc2cccc(Oc3ccccc3)c2)C2COC2)c1F [Example 148] |  | 80% | 95% | 3.06 | 
7 | Cn1nc(C(F)F)c(C(=O)NCc2cccc(-c3ccccc3)c2)c1F [Example 166] |  | 78% | 80% | 3.19 | 
8 | Cn1nc(C(F)F)c(C(=O)N(CC#N)Cc2c(Cl)cccc2C(F)(F)F)c1F [Example 88] | 2.68 | 80% |  |  | 
9 | Cn1nc(C(F)F)c(C(=O)NC(c2ccccc2Cl)C(F)(F)F)c1F (racemic) [Example 23] | 3.21 | 89% |  |  | 
10 | CC(c1ccc(Oc2ccccc2)cc1)N(C)C(=O)c1c(C(F)F)nn(C)c1Cl (racemic) [Example 153] |  | 90% | 80% | 3.76 | 
11 | Cn1nc(C(F)F)c(C(=O)NC(C)(C)c2cc(Cl)ccc2Cl)c1Cl [Example 49] | 3.89 |  |  |  | 94%
12 | CON(C(=O)c1c(C(F)F)nn(C)c1Cl)C(C)c1ccc(Cl)cc1Cl (stereo not drawn) [Example 46] | 3.81 | 100% | 100% |  | 
13 | Cn1nc(C(F)F)c(C(=O)NCc2ccccc2SC(F)(F)F)c1F [Example 107] |  | 80% | 100% | 3.11 | 
14 | CC(c1ccccc1Cl)N(C)C(=O)c1c(C(F)F)nn(C)c1F (racemic) [Example 28] | 2.68 |  | 100% |  | 85%
15 | Cn1nc(C(F)F)c(C(=O)NC(C)(C)c2ccc(Cl)cc2Cl)c1Cl [Example 35] | 3.89 |  |  |  | 86%
16 | CN(Cc1cccc(Oc2ccccc2)c1)C(=O)c1c(C(F)F)nn(C)c1F [Example 150] |  | 70% | 100% | 3.31 | 
17 | Cn1nc(C(F)F)c(C(=O)NCc2cc(Cl)cc(Cl)c2)c1Cl [Example 113] |  | 90% | 80% | 3.23 | 
18 | CC(NC(=O)c1c(C(F)F)nn(C)c1F)c1ccccc1 (racemic) [Example 2] | 2.33 | 93% | 94% |  | 
19 | Cn1nc(C(F)F)c(C(=O)NCc2ccc(OCc3ccccc3)cc2)c1F [Example 161] |  | 94% | 90% | 3.23 | 
20 | Cn1nc(C(F)F)c(C(=O)NCc2ccc(Cl)cc2)c1F [Example 127] |  | 90% |  | 2.55 | 
21 | CC(c1ccccc1Cl)N(C)C(=O)c1c(C(F)F)nn(C)c1Cl (racemic) [Example 27] | 2.84 | 80% | 100% |  | 
22 | CC(NC(=O)c1c(C(F)F)nn(C)c1Cl)c1ccccc1 (racemic) [Example 1] | 2.49 | 95% | 95% |  | 
23 | Cn1nc(C(F)F)c(C(=O)NC2CCc3ccccc32)c1F (stereo not drawn) [Example 138] |  | 94% |  | 2.57 | 
24 | Cn1nc(C(F)F)c(C(=O)NCc2ccc(-c3ccccc3)cc2)c1F [Example 170] |  | 94% | 95% | 3.21 | 
25 | Cn1nc(C(F)F)c(C(=O)N(Cc2cccc(Oc3ccccc3)c2)C2COC2)c1Cl [Example 147] |  | 70% |  | 3.19 | 

Row | Compound | logP [1, 2] | Efficacy (Alternaria solani) | Efficacy (Pyrenophora teres) | logP [1, 3] | Efficacy (Sphaerotheca fuliginea)
26 | Cn1nc(C(F)F)c(C(=O)NC2CCc3ccccc32)c1Cl (stereo not drawn) [Example 137] |  | 89% |  | 2.73 | 
27 | Cn1nc(C(F)F)c(C(=O)NC(c2ccc(Cl)cc2Cl)C(F)(F)F)c1Cl (stereo not drawn) [Example 32] | 3.89 |  |  |  | 95%
28 | Cn1nc(C(F)F)c(C(=O)NCc2ccccc2C(F)(F)F)c1F [Example 81] | 2.76 | 90% |  |  | 
29 | Cn1nc(C(F)F)c(C(=O)NC2(c3ccc(C(F)(F)F)cc3)CCCC2)c1F [Example 121] |  | 70% | 94% | 3.72 | 
30 | Cn1nc(C(F)F)c(C(=O)NC(C)(C)c2ccccc2Cl)c1Cl [Example 22] | 3.15 |  |  |  | 80%
31 | Cn1nc(C(F)F)c(C(=O)NCc2ccc(Cl)cc2Cl)c1F [Example 37] | 4.19 | 94% |  |  | 
32 | Cn1nc(C(F)F)c(C(=O)NC2(c3ccc(Cl)cc3Cl)CC2)c1Cl [Example 41] | 3.89 | 80% |  |  | 
33 | Cn1nc(C(F)F)c(C(=O)NCc2cccc(Oc3ccccc3)c2)c1F [Example 145] |  | 90% |  | 3.23 | 
34 | CN(Cc1ccc(Oc2ccccc2)cc1)C(=O)c1c(C(F)F)nn(C)c1F [Example 156] |  | 89% | 90% | 3.33 | 
35 | Cn1nc(C(F)F)c(C(=O)NCc2cc(Cl)cc(Cl)c2)c1F [Example 115] |  | 94% | 90% | 3.09 | 
36 | Cn1nc(C(F)F)c(C(=O)NCc2ncc(C(F)(F)F)cc2Cl)c1F [Example 176] |  | 70% |  | 2.76 | 
37 | CC(NC(=O)c1c(C(F)F)nn(C)c1Cl)c1ccc(-c2ccccc2)cc1 (racemic) [Example 167] |  | 95% | 90% | 3.62 | 
38 | CN(Cc1ccc(Oc2ccc(Cl)cc2)cc1)C(=O)c1c(C(F)F)nn(C)c1F [Example 158] |  | 95% | 100% | 3.81 | 
39 | C#CCN(Cc1c(Cl)cccc1C(F)(F)F)C(=O)c1c(C(F)F)nn(C)c1F [Example 93] | 3.05 |  | 95% |  | 
40 | Cn1nc(C(F)F)c(C(=O)NCc2ccc(Oc3ccccc3)cc2)c1F [Example 152] |  | 89% | 95% | 3.23 | 
41 | CC(NC(=O)c1c(C(F)F)nn(C)c1Cl)c1ccc(OCc2ccccc2)cc1 (racemic) [Example 159] |  |  | 95% | 3.58 | 
42 | Cn1nc(C(F)F)c(C(=O)NCc2ccccc2C(F)(F)F)c1Cl [Example 83] | 2.96 | 90% |  |  | 
43 | Cn1nc(C(F)F)c(C(=O)NC2(c3cc(Cl)ccc3Cl)CC2)c1F [Example 51] | 4.19 | 94% | 80% |  | 
44 | Cn1nc(C(F)F)c(C(=O)NCc2ccccc2Oc2ccccc2)c1F [Example 144] |  | 89% |  | 3.25 | 
45 | CCOc1ccc(C2(NC(=O)c3c(C(F)F)nn(C)c3F)CCCC2)cc1 [Example 131] |  |  | 94% | 3.44 | 
46 | CN(Cc1c(Cl)cccc1C(F)(F)F)C(=O)c1c(C(F)F)nn(C)c1F [Example 89] | 2.93 | 95% | 100% |  | 
47 | Cn1nc(C(F)F)c(C(=O)N(Cc2cc(Cl)ccc2C(F)(F)F)C2CSC2)c1F [Example 87] | 3.92 |  | 95% |  | 
48 | CN(Cc1ccccc1Br)C(=O)c1c(C(F)F)nn(C)c1F [Example 105] |  | 95% | 94% | 2.71 | 
49 | CC(c1ncc(Cl)cc1Cl)N(C(=O)c1c(C(F)F)nn(C)c1Cl)C1CCCC1 (stereo not drawn) [Example 188] |  |  | 95% | 4.67 | 
